Reference: patent publication US20240226098A1, “COMPOUNDS AND METHODS FOR MODULATING SPLICING” (REMIX THERAPEUTICS INC., priority 2020, published 2024)
pIC50: −log10 of the molar value. Counter-ions that a name gives are not always drawn.

What was measured:
Assay type in all cases: cell-based
[1] = tested on: SMN2 CJ mRNA; assay: Gene panel canonical junction qPCR assay: decrease in SMN2 CJ mRNA; settings: protocol as for Table 2, read-out: SMN2 (IC50, decrease in CJ mRNA levels)
Experimental: (§1) Compounds described herein were used to modulate RNA transcript abundance in cells. The expression of a target mRNA was measured by detecting the formation of an exon-exon junction in the canonical transcript (CJ). A compound mediated exon-inclusion event was detected by observing an increase in formation of a new junction with an alternative exon (AJ). Real-time qPCR assays were used to detect these splicing switches and interrogate the potency of various compounds towards different target genes. A high-throughput real time quantitative PCR (RT-qPCR) assay was developed to measure these two isoforms of the mRNA (CJ and AJ) for an exemplary gene, HTT, together with a control housekeeping gene, GAPDH or GUSB or PPIA, used for normalization. Briefly, the A673 or K562 cell line was treated with various compounds described herein (e.g., compounds of Formula (I)). After treatment, the levels of the HTT mRNA targets were determined from each sample of cell lysate by cDNA synthesis followed by qPCR.
(§2) The A673 cell line was cultured in DMEM with 10% FBS. Cells were diluted with full growth media and plated in a 96-well plate (15,000 cells in 100 ul media per well). The plate was incubated at 37° C. with 5% CO2 for 24 hours to allow cells to adhere. An 11-point 3-fold serial dilution of the compounds was made in DMSO then diluted in media in an intermediate plate. Compounds were transferred from the intermediate plate to the cell plate with the top dose at a final concentration of 10 uM in the well. Final DMSO concentration was kept at or below 0.25%. The cell plate was returned to the incubator at 37° C. with 5% CO2 for an additional 24 hours.
(§3) The K562 cell line was cultured in IMDM with 10% FBS. For K562, cells were diluted with full growth media and plated in either a 96-well plate (50,000 cells in 50 uL media per well) or a 384-well plate (8,000-40,000 cells in 45 uL media per well). An 11-point 3-fold serial dilution of the compounds were made in DMSO then diluted in media in an intermediate plate. Compound was transferred from the intermediate plate to the cell plate with the top dose at a final concentration of 10 uM in the well. Final DMSO concentration was kept at or below 0.25%. Final volume was 100 uL for 96-well plate and 50 uL for 384-well plate. The cell plate was then placed in an incubator at 37° C. with 5% CO2 for 24 hours.
(§4) The cells were then gently washed with 50 uL-100 uL cold PBS before proceeding to addition of lysis buffer. 30 uL-50 uL of room temperature lysis buffer with DNAse I (and optionally RNAsin) was added to each well. Cells were shaken/mixed thoroughly at room temperature for 5-10 minutes for lysis to take place and then 3 uL-5 uL of room temperature stop solution was added and wells were shaken/mixed again. After 2-5 minutes, the cell lysate plate was transferred to ice for RT-qPCR reaction setup. The lysates could also be frozen at −80° C. for later use.
(§5) In some cases, a direct lysis buffer was used. An appropriate volume of 3× lysis buffer (10 mM Tris, 150 mM NaCl, 1.5%-2.5% Igepal and 0.1-1 U/uL RNAsin, pH 7.4) was directly added to either K562 or A673 cells in media and mixed by pipetting 3 times. The plates were then incubated at room temperature with shaking/rocking for 20-50 minutes to allow for lysis to take place. After this time, the cell lysate plate was transferred to ice to set up for the RT-qPCR reactions. The lysates could also be frozen at −80° C. for later use.
(§6) To set up 10 uL RT-qPCR reactions, cell lysates were transferred to 384-well qPCR plates containing the master mix according to the table below. The plates were sealed, gently vortexed, and spun down before the run. The volumes were adjusted accordingly in some instances where the reaction was carried in 20 uL. The table below summarizes the components of the RT-qPCR reactions:
(§7) The RT-qPCR reaction was performed using a QuantStudio (ThermoFisher) under the following fast cycling conditions. […]

[2] = tested on: HTT mRNA, alternative junction (AJ); assay: Splicing assay (RT-qPCR): increase in HTT alternative junction (AJ) mRNA; settings: A673 or K562 cell line, 24 hours treatment, top dose 10 uM; concentration having 50% response in AJ increase
Experimental: as §1
(§8) • Cells-to-CT 1-step kit: ThermoFisher A25602, Cells-to-CT lysis reagent: ThermoFisher 4391851C, TaqMan™ Fast Virus 1-Step Master Mix: ThermoFisher 4444436 • GAPDH: VIC-PL, ThermoFisher 4326317E (Assay: Hs99999905_ml)—used for K562/suspension cell lines • GUSB: VIC-PL, ThermoFisher 4326320E (Assay: Hs99999908_ml)—used for K562/suspension cell lines • PPIA: VIC-PL, ThermoFisher 4326316E (Assay: Hs99999904_ml)—used for A673/adherent cell lines
as §2, §3, §4
as §5, with “use. […]” for “use.”

[3] = tested on: Target C CJ mRNA; assay: Gene panel canonical junction qPCR assay: decrease in Target C CJ mRNA; settings: protocol as for Table 2, read-out: Target C (IC50, decrease in CJ mRNA levels)
Experimental: as §1, §2, §3, §4, §5, §6, §7

[4] = tested on: HTT mRNA, canonical junction (CJ); assay: Splicing assay (RT-qPCR): decrease in HTT canonical junction (CJ) mRNA; settings: A673 or K562 cell line, 24 hours treatment, top dose 10 uM; concentration having 50% response in CJ decrease
Experimental: as §1, §8, §2, §3, §4
as §5, with “use. […]” for “use.”

[5] = tested on: HTT CJ mRNA; assay: Gene panel canonical junction qPCR assay: decrease in HTT CJ mRNA; settings: protocol as for Table 2, read-out: HTT (IC50, decrease in CJ mRNA levels)
Experimental: as §1, §2, §3, §4, §5, §6, §7

Structure (SMILES)	pIC50 [1]	pIC50 [3]	pIC50 [5]	AC50 [2] [µM]	AC50 [4] [µM]
Cc1cn2cc(NC(=O)c3ccc(N(C)C4CCN(C)CC4)c4ccnnc34)cc(F)c2n1 [Compound 136, N-[8-fluoro-2-methylimidazo[1,2-a]pyridin-6-yl]-5-[methyl(1-methylpiperidin-4-yl)amino] cinnoline-8-carboxamide]	–	–	–	1 to 10	1 to 10
Cc1cn2cc(NC(=O)c3ccc(N4CCC(NC(C)(C)C)C4)c4ccnnc34)cc(F)c2n1 (stereo not shown) [Compound 109, 5-[3-(tert-butylamino)pyrrolidin-1-yl]-N-[8-fluoro-2-methylimidazo[1,2-a]pyridin-6-yl]cinnoline-8-carboxamide]	6.00 to 7.00	–	5.00 to 6.00	1 to 10	1 to 10
Cc1cn2cc(NC(=O)c3ccc(N4CCNC5(CC5)C4)c4ccnnc34)cc(F)c2n1 [Compound 105, 5-[4,7-diazaspiro [2.5]octan-7-yl]-N-[8-fluoro-2-methylimidazo[1,2-a]pyridin-6-yl] cinnoline-8-carboxamide hydrochloride]	–	–	–	1 to 10	1 to 10
Cc1cn2cc(NC(=O)c3ccc(N(C)C4CC(C)(C)NC(C)(C)C4)c4ccnnc34)cc(F)c2n1 [Compound 135, N-[8-fluoro-2-methylimidazo[1,2-a]pyridin-6-yl]-5-[methyl(2,2,6,6-tetramethylpiperidin-4-yl)amino]cinnoline-8-carboxamide]	–	–	–	1 to 10	0.1 to 1
Cc1cn2cc(NC(=O)c3ccc(N4CCNC(C)(C)C4)c4ccnnc34)cc(F)c2n1 [Compound 106, 5-(3,3-dimethylpiperazin-1-yl)-N-[8-fluoro-2-methylimidazo[1,2-a]pyridin-6-yl] cinnoline-8-carboxamide hydrochloride]	–	–	–	1 to 10	0.1 to 1
Cc1cn2cc(NC(=O)c3ccc(N4CCN5CCCC5C4)c4ccnnc34)cc(F)c2n1 (stereo not shown) [Compound 107]	–	–	–	0.1 to 1	1 to 10
CCNC1CCN(c2ccc(C(=O)Nc3cc(F)c4nc(C)cn4c3)c3nnccc23)CC1 [Compound 139, 5-[4-(ethylamino)piperidin-1-yl]-N-[8-fluoro-2-methylimidazo[1,2-a]pyridin-6-yl]cinnoline-8-carboxamide]	–	–	–	1 to 10	1 to 10
Cc1cn2cc(NC(=O)c3ccc(N4CC(C)(C)NC(C)(C)C4)c4ccnnc34)cc(F)c2n1 [Compound 104, N-[8-fluoro-2-methylimidazo[1,2-a]pyridin-6-yl]-5-(3,3,5,5-tetramethylpiperazin-1-yl) cinnoline-8-carboxamide]	–	–	–	1 to 10	1 to 10
Cc1cn2cc(NC(=O)c3ccc(N4CCNCC4)c4ncnnc34)cc(F)c2n1 [Compound 110, N-[8-fluoro-2-methylimidazo[1,2-a]pyridin-6-yl]-5-(piperazin-1-yl)-1,2,4-benzotriazine-8-carboxamide]	–	–	–	1 to 10	1 to 10

Second part, led by results:

pIC50 [1]	pIC50 [3]	pIC50 [5]	Structure (SMILES)	AC50 [2] [µM]	AC50 [4] [µM]
< 5.00	< 5.00	< 5.00	Cn1cc2c(F)cc(NC(=O)c3ccc(N4CCNCC4)c4ccnnc34)cc2n1 [Compound 116, N-(4-fluoro-2-methylindazol-6-yl)-5-(piperazin-1-yl) cinnoline-8-carboxamide]	> 10	> 10
> 7.00	< 5.00	5.00 to 6.00	CCC1CN(c2ccc(C(=O)Nc3cc(F)c4nc(C)cn4c3)c3nnccc23)CCN1 (stereo in doubt) [Compound 152, 5-[(3R)-3-ethylpiperazin-1-yl]-N-[8-fluoro-2-methylimidazo[1,2-a]pyridin-6-yl]cinnoline-8-carboxamide]	1 to 10	1 to 10
> 7.00	5.00 to 6.00	6.00 to 7.00	Cc1cn2cc(NC(=O)c3ccc(N4CCN5CCCC5C4)c4ccnnc34)cc(F)c2n1 (stereo in doubt) [Compound 153, 5-[(8aS)-hexahydro-1H-pyrrolo[1,2-a]pyrazin-2-yl]-N-[8-fluoro-2-methylimidazo[1,2-a]pyridin-6-yl]cinnoline-8-carboxamide]	0.1 to 1	0.1 to 1
> 7.00	5.00 to 6.00	6.00 to 7.00	Cc1cn2cc(NC(=O)c3ccc(N4CCC(N(C)C)CC4)c4nccnc34)cc(F)c2n1 [Compound 158, 8-[4-(dimethylamino)piperidin-1-yl]-N-[8-fluoro-2-methylimidazo[1,2-a]pyridin-6-yl] quinoxaline-5-carboxamide]	0.1 to 1	0.1 to 1
> 7.00	> 7.00	5.00 to 6.00	Cc1cn2cc(NC(=O)c3ccc(N4CC5(CN(C)C5)C4)c4ccnnc34)cc(F)c2n1 [Compound 132, N-[8-fluoro-2-methylimidazo[1,2-a]pyridin-6-yl]-5-[6-methyl-2,6-diazaspiro[3.3]heptan-2-yl]cinnoline-8-carboxamide]	1 to 10	1 to 10
< 5.00	–	< 5.00	COc1ccc2c(N3CCNCC3)ccc(-c3cc(F)c4nc(C)cn4c3)c2n1 [Compound 114, 8-[8-fluoro-2-methylimidazo[1,2-a]pyridin-6-yl]-2-methoxy-5-(piperazin-1-yl) quinoline]	> 10	> 10
> 7.00	–	5.00 to 6.00	Cc1cn2cc(NC(=O)c3ccc(N4CCN(C)C(C)C4)c4ccnnc34)cc(F)c2n1 (stereo not shown) [Compound 129, 5-(3,4-dimethylpiperazin-1-yl)-N-[8-fluoro-2-methylimidazo [1,2-a]pyridin-6-yl]cinnoline-8-carboxamide]	1 to 10	1 to 10
< 5.00	–	< 5.00	Cc1cn2cc(-c3ccc(N4CCNCC4)c4ccc(O)nc34)cc(F)c2n1 [Compound 144, 8-[8-fluoro-2-methylimidazo[1,2-a]pyridin-6-yl]-5-(piperazin-1-yl)quinolin-2-ol]	> 10	> 10
> 7.00	–	5.00 to 6.00	CCC1CN(c2ccc(C(=O)Nc3cc(F)c4nc(C)cn4c3)c3nnccc23)CCN1 (stereo not shown) [Compound 130, 5-(3-ethylpiperazin-1-yl)-N-[8-fluoro-2-methylimidazo[1,2-a]pyridin-6-yl] cinnoline-8-carboxamide hydrochloride]	1 to 10	1 to 10
